Assay results as given in patent US4748154A, “Peptide derivatives, their production and use” (Takeda Chemical Industries, Ltd., priority 1985, dated 1988).
Square brackets hold non-standard residues; d marks the D form. Peptide text beside a SMILES is read from it. * marks the point of attachment. Cys(free,S-linked) = N[C@@H](CS*)C(=O)O; pGlu = O=C1CC[C@@H](C(=O)O)N1

Test system: C57BL/6 mice
Experiment: one-trial passive avoidance task, amnesia induced by cycloheximide
Type: in vivo
Conditions: 24 h after footshock and cycloheximide 20 mg/kg sc
Description: The effect on memory process was tested in a one-trial passive avoidance task in C57BL/6 mice. The learning procedure was fundamentally the same as that used by Burbach et al (Science; 221, 1310-1312, 1983). The apparatus consisted of an illuminated compartment attached to a dark one with grid floor. Mice were placed in the light compartment and allowed to enter the dark one. When mice entered the dark compartment, an electric footshock (0.4 mA, 3 sec) was delivered. Immediately after receiving a footshock, mice were administered with cycloheximide (20 mg/kg, sc), a protein synthesis inhibitor, and a retention test trial was carried out 24 hours later. Retention of passive avoidance behavior was measured by the latency to reenter the dark compartment after placing mice in the light compartment. Five minutes before the testing, mice were treated with 5 μl of peptide in a dose of 10 pg and 10 ng by intracerebroventricular injection through a hypodermic needle attached to a 25 μl syringe. Compounds of the present invention were dissolved in saline. […] Median latencies in peptide-treated groups were expressed as a percentage of that in control, and either Mann-WhitneyU test for latencies or chi-square test for percent of mice showing latencies longer than 50 seconds was used in statistical analysis. Number of mice used in each group was 9-22.

[1] = intracerebroventricular injection (10 pg and 10 ng tested; dose not stated per value) 5 min before retention test

SMILES	median latency to reenter the dark compartment, as a percentage of that in control [1]	median latency to reenter the dark compartment, as a percentage of that in control (dose of 10 pg, intracerebroventricular injection 5 min before retention test)
NCCCC[C@@H](NC(=O)[C@@H]1CCCN1C(=O)[C@H](CSSC[C@H](N)C(=O)O)NC(=O)[C@H](CC(N)=O)NC(=O)[C@@H]1CCC(=O)N1)C(=O)O [Example 1] ([pGlu]NC(Cys(free,S-linked))P[dK]-OH)	238%	–
N=C(N)NCCC[C@H](NC(=O)[C@@H]1CCCN1C(=O)[C@H](CSSC[C@H](N)C(=O)O)NC(=O)[C@H](CC(N)=O)NC(=O)[C@@H]1CCC(=O)N1)C(=O)NCC(N)=O [reference compound] ([pGlu]NC(Cys(free,S-linked))PRG-NH2)	–	191 % of control
NCCCC[C@@H](NC(=O)[C@H]1CCCN1C(=O)[C@H](CSSC[C@H](N)C(=O)O)NC(=O)[C@H](CC(N)=O)NC(=O)[C@@H]1CCC(=O)N1)C(=O)O [Example 6] ([pGlu]NC(Cys(free,S-linked))[dP][dK]-OH)	238%	–
C[C@H](NC(=O)[C@H](CSSC[C@H](N)C(=O)O)NC(=O)[C@H](CC(N)=O)NC(=O)[C@@H]1CCC(=O)N1)C(=O)N[C@H](CCCCN)C(=O)O [Example 8] ([pGlu]NC(Cys(free,S-linked))A[dK]-OH)	179%	–
